# Assays:
# [1] = Screening incubation in pooled human plasma (PHP); format: in vitro ADME; settings: incubation 37 °C, one hour, n = 2; <LOD = bupropion, its metabolites or other prodrugs not detected; LOD 0.1 ng/mL
# Text: Pooled human plasma solution preparation. Citrated human plasma was pooled together from three separate donors.
# Finally, pooled human plasma (PHP) was used to evaluate the prodrug stability/activation in blood since the plasma fraction contains much of the hydrolase activity in blood.
# [2] = Michaelis-Menten kinetics of bupropion formation in pooled human liver microsomes; format: in vitro ADME; settings: pooled HLM 0.1 mg/mL, substrate 1–500 µM, 20 min, 37 °C, n = 6
# Description: Microsomes, NADPH regenerating solutions A and B were thawed rapidly to 37 °C, and then kept on ice until ready for use. Substrate solutions were prepared (1–500 µM) where the maximum concentration of DMSO was 1%, and the concentration of microsomes, NADPH regenerating solution B and phosphate buffer was fixed. After incubation for 5 min, NADPH regenerating solution A was added and the metabolism was initiated. Final volume was 100 μL. The tube was inverted twice and vortex mixed. The final concentrations of prodrug in this solution was 1–500 µM, HLM (0.1 mg/mL) or HIM (0.02 mg/mL), NADP^+ (1.3 mM), glucose-6-phosphate dehydrogenase (0.4 U/mL) and 1.0% DMSO. This solution was incubated for 20 min at 37 °C. The reaction was quenched by addition of 100 µL of acetonitrile. The mixture was centrifuged at 10,000 × g for 10 min. The supernatant was analyzed by LC-MS analysis.
# [3] = Microsomal metabolic stability screen, pooled human liver microsomes (HLM); format: in vitro ADME; settings: 10 µM prodrug, 0.1 mg/mL HLM, NADPH regenerating system, 37 °C, 60 min, n = 2; LOD 0.1 ng/mL
# Description: Human liver microsome (HLM) stock solution preparation. HLM (0.5 mL) stock was added to PBS solution (9.5 mL). Final concentration; 1 mg/mL. The PBS solution was prepared by addition of one USP PBS tablet (Sigma-Aldrich catalogue number P4417) dissolved in 200 mL deionised water.
# (§1) Microsomes, NADPH regenerating solutions A and B were thawed rapidly to 37 °C, then kept on wet ice until ready for use. A stock solution of the prodrug (5 mM) was prepared in ACN. To a 1.7 mL microcentrifuge tube in a 37 °C water bath was added the phosphate buffered saline solution (349 µL), the NADPH regenerating solution A (50 µL), the NADPH regenerating solution B (50 µL), and the prodrug solution (1 µL). After incubation for 5 min, microsome solution (50 µL) was added and the metabolism was initiated. The tube was vortex mixed. The final concentrations in this solution was 10 µM prodrug, 0.1 mg/mL HLM or 0.02 mg/mL HIM, 1.3 mM NADP^+, 0.4 U/mL glucose-6-phosphate dehydrogenase and 0.2% organic solvent. This solution was incubated for 60 min at 37 °C. The reaction was quenched by addition of acetonitrile (500 µL). The mixture was centrifuged at 10,000 × g for 10 min. The supernatant was analyzed by LC-MS analysis.
# After passing through the intestinal membrane into the portal circulation the prodrug quickly enters the liver. This metabolic condition was simulated in the present work by using pooled human liver microsomes (HLM).
# [4] = molecular target: Muscarinic non -selective, central; assay: Pharmacological screen, muscarinic receptor binding
# [5] = Aqueous pH stability profile at 40 °C
# [6] = molecular target: T1, Norepinephrine transporter (NET) (Homo sapiens, UniProt P23975); assay: Pharmacological screen, norepinephrine transporter; format: binding
# T1 construct: MDS Pharma Services Taiwan
# T1 sequence (P23975 whole entry): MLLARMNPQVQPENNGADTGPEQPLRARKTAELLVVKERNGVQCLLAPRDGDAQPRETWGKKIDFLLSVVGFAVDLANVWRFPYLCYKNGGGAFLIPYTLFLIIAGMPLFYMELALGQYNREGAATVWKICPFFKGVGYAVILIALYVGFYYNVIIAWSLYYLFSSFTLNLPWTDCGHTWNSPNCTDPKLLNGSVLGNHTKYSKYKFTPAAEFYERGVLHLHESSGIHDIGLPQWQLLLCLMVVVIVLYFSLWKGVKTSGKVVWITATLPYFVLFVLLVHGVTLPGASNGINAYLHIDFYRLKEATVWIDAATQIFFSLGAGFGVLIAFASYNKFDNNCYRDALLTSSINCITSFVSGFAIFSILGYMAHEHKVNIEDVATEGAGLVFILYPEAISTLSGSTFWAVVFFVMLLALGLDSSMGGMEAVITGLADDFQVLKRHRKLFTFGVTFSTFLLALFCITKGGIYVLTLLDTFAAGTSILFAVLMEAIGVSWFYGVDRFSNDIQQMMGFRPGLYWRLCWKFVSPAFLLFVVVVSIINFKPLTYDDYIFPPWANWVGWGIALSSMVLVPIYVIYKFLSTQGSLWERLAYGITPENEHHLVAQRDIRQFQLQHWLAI
# [7] = molecular target: T2, Serotonin transporter (SERT) (Homo sapiens, UniProt P31645); assay: biochemical
# T2 sequence (P31645 whole entry): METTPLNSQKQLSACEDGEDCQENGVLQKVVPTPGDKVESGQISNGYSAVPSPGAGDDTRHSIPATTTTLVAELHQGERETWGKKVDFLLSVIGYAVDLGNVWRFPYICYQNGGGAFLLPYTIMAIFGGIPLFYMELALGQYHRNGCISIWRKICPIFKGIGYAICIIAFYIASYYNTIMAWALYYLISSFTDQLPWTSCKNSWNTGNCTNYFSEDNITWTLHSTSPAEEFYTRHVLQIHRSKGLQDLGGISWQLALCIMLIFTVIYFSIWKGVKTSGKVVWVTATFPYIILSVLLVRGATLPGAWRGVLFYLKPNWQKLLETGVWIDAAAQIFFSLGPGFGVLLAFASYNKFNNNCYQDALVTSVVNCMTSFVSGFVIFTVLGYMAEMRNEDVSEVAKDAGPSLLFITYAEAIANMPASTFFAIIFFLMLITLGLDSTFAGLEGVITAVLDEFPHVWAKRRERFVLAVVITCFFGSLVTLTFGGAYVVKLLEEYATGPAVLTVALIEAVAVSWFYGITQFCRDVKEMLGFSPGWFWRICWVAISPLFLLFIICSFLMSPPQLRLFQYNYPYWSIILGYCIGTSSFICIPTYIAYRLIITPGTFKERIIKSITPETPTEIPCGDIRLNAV
# [8] = Screening incubation in USP simulated intestinal fluid (SIF); settings: incubation 37 °C, one hour, n = 2; <LOD = bupropion, its metabolites or other prodrugs not detected; LOD 0.1 ng/mL
# Description: USP simulated intestinal fluid preparation. Monobasic potassium phosphate (0.068 g) was dissolved in 2.5 mL of water and mixed. Sodium hydroxide (0.77 mL of 0.2 M) and water (5.0 mL) were added. Pancreatin (0.1 g) was added and the pH adjusted with either 0.2 M sodium hydroxide or 0.2 M hydrochloric acid to a pH of 6.8 ± 0.1. The solution was diluted to 10 mL with water.
# (§2) Pepsin is most efficient at cleaving peptide bonds between hydrophobic and aromatic amino acids such as phenylalanine, tryptophan and tyrosine. In order to simulate the pH and digestive enzymes of the stomach, USP simulated gastric fluid (SGF) was used. Conditions in the intestine were simulated using USP simulated intestinal fluid (SIF).
# (§3) One hour metabolism or hydrolysis was considered to be sufficient time to generate detectable levels of metabolites, bearing in mind the likely exposure time in vivo. A blank media was used in each analysis to subtract a background from each LC-MS sample chromatogram. A t0 sample was also used to identify impurities related to each prodrug.
# (§4) After one hour incubation of each compound in the selected media, the mixture was quenched with acetonitrile and the sample was centrifuged to remove precipitated proteins. The supernatant solution was analyzed immediately by LC-MS using data dependent acquisition analysis.
# (§5) This transformation is commonly used to assess activity of oxidative enzyme CYP2B6 in human liver and intestinal microsomes. […] It was important to report if any of the other prodrugs were detected if for instance a possible multistep-prodrug was found.
# [9] = molecular target: Nicotinic acetylcholine; assay: Pharmacological screen, nicotinic acetylcholine receptor binding
# Description: 2.4. Plasma LLOQ/Precision […]
# of 10 ng/mL. […] ACN (200 µL) […]
# was added and the solution was vortex mixed. The remaining mixture was centrifuged at 10,000 rpm […]
# The final concentration was 1 ng/mL. […]
# signal to noise ratio of three.
# 2.6. Brain LLOQ Accuracy/Precision
# Aliquots (5 × 200 µL) were […]
# transferred to 1.5 mL microcentrifuge tubes.
# ACN (300 µL) was added and […]
# the solution was vortex mixed. […] 200 µL
# The solution was vortex mixed again and analysed by HPLC. Final concentrations were 12.5, 125 ng/mL.
# 2.7. Pharmacological Screening of N-Methyl Bupropion and Bupropion […]
# nicotinic acetylcholine receptor [5,6] and SERT [7,8]. The specific nicotinic acetylcholine assays are […]
# and nicotinic acetylcholine α7 [12].
# 3. Results Method Validation […]
# diluent solutions separately.
# [10] = Microsomal metabolic stability screen, pooled human intestinal microsomes (HIM); format: in vitro ADME; settings: 10 µM prodrug, 0.02 mg/mL HIM, NADPH regenerating system, 37 °C, 60 min, n = 2; LOD 0.1 ng/mL
# Description: Human intestinal microsome (HIM) stock solution preparation. HIM (0.2 mL) stock was added to PBS solution (9.8 mL). Final concentration; 0.2 mg/mL.
# as §1
# The intestinal cells contain cytochome P450 enzymes, flavin monoxygenases, esterases and UDP glucuroyl transferases. Condition III involved the use of pooled human intestinal microsomes (HIM) in order to simulate the potential metabolism that occurs during absorption and passage through the intestinal wall.
# [11] = molecular target: T2, Serotonin transporter (SERT)
# [12] = Screening incubation in USP simulated gastric fluid (SGF); settings: incubation 37 °C, one hour, n = 2; <LOD = bupropion, its metabolites or other prodrugs not detected; LOD 0.1 ng/mL
# Description: USP simulated gastric fluid preparation. Sodium chloride (0.02 g) and purified pepsin (0.032 g) that is derived from porcine stomach mucosa with an activity of 800 to 2,500 units per mg of protein were dissolved in 0.07 mL of concentrated hydrochloric acid and sufficient water to make 10 mL.
# as §2, §3, §4, §5
# [13] = molecular target: T3, Dopamine active transporter (DAT) (Homo sapiens, UniProt Q01959); assay: Pharmacological screen, dopamine transporter; format: binding
# T3 construct: MDS Pharma Services Taiwan
# T3 sequence (Q01959 whole entry): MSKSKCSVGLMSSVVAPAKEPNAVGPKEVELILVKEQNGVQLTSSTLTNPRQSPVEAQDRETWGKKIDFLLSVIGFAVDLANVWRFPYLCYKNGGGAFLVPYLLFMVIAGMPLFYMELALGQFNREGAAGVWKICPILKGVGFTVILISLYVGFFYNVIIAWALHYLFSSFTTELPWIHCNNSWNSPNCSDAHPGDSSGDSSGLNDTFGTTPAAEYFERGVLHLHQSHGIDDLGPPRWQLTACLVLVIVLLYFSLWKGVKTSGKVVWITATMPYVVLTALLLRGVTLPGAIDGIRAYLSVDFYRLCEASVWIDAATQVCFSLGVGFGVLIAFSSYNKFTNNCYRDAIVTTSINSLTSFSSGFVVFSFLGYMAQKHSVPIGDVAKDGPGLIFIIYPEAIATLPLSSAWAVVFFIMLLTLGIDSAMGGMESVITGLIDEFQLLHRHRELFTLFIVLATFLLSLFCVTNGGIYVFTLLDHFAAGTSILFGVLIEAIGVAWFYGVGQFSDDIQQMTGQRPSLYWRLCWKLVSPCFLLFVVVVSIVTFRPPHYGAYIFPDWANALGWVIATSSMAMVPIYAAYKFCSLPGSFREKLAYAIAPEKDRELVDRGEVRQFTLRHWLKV
structure (smiles),measurement,setting,value
"CC(C(=O)c1cccc(Cl)c1)N(C)C(C)(C)C (racemic) [Compound 4, Rac-N-methyl bupropion]",Primary product detected in media PHP,[1],<LOD
same,Vmax of bupropion formation,[2],900.4 ± 73.8 pmol/min/mg HLM
same,Vmax of bupropion formation,[2]; listed as N-methylbupropion,900.4 ± 74 pmol/min/mg HLM
same,Primary product detected in media HLM,[3],bupropion was detected
same,IC50,[4],39.3 µM
same,Ki,[4]; Cheng and Prusoff,12.3 µM
same,aqueous degradation rate above pH 5,[5]; above pH 5,degraded faster than bupropion
same,aqueous degradation rate above pH 12,[5]; above pH 12,rate of degradation decreased quite dramatically
same,aqueous stability / degradation rate below pH 5,[5]; below pH 5,stable
same,IC50,[6],57.9 µM
same,Ki,[6],54.4 µM
same,nH (Hill coefficient),[6]; NET,0.764
same,"activity as norepinephrine reuptake inhibitor, in words",[6]; compared with bupropion,less active than bupropion
same,IC50,[7],> 100 µM
same,Primary product detected in media SIF,[8],<LOD
same,IC50,[9]; Nicotinic acetylcholine,71.6 µM
same,Ki,"[9]; Nicotinic acetylcholine, Cheng and Prusoff",49.2 µM
same,"activity at the nicotinic acetylcholine receptors, in words",[9]; compared with bupropion,more active than bupropion
same,Primary product detected in media HIM,[10],bupropion was detected
same,"effect on the serotonin transporter system, in words",[11],little effect
same,Primary product detected in media SGF,[12],<LOD
same,IC50,[13],3.71 µM
same,Ki,[13],2.95 µM
same,nH (Hill coefficient),[13]; DAT,0.924
same,"activity as dopamine reuptake inhibitor, in words",[13]; compared with bupropion,less active than bupropion

# From PMC4035770 (Pharmaceuticals, 2014)
